≈ marks a conversion by molar mass, not a printed value. Where two headings read alike, the source gives them in different places.
Assays:
[1] = tested on: Aspergillus fumigatus clinical isolate 293 (AF 293); test: Survival of A. fumigatus-infected immunosuppressed mice (Kaplan-Meier); assay type: in vivo; conditions: for Percent Survival / Median Survival: A. fumigatus-infected female ICR mice, VOR inhalation BID 30-40 mg/kg, AmB intraperitoneal QD 1 mg/kg; for Percent Survival: to Day +12
Excerpt: Conidia were harvested from Aspergillus fumigatus clinical isolate 293 (AF 293) cultures grown on potato dextrose agar (Hardy Diagnostics, Santa Maria, Calif.) by washing and scraping agar surfaces with 0.1% Tween 80 in sterile physiological saline and filtering through sterile glass wool. Conidia were re-suspended to achieve a final inoculum of ˜1×10^9 conidia/mL, as confirmed by hemocytometer counts and serial plating.
Mice were rendered immunosuppressed by intraperitoneal cyclophosphamide (250 mg/kg) and subcutaneous cortisone acetate (250 mg/kg) two days prior to inoculation (Day −2). Both cyclophosphamide (200 mg/kg intraperitoneal) and cortisone acetate (250 mg/kg subcutaneously) were re-administered on Day +3 following inoculation. Mice also received prophylactic antibiotic therapy of ceftazidime 50 mg/kg administered sub-cutaneously on Day −2 through Day +7.
To simulate pulmonary pathogenesis, mice were placed inside an acrylic chamber, and A. fumigatus conidia were introduced by aerosolizing the conidial suspension with a small particle nebulizer (Hudson Micro Mist, Hudson RCI, Temecula, Calif.) driven by compressed air. A standard exposure time of 1 hour was used to allow for complete aerosolization of the conidial suspension. Starting inocula were assessed by colony forming unit (CFU) enumeration from mice one hour post-inoculation.
The inhaled control group received 20 minute nebulizations of 100 mg/mL CAPTISOL® solutions BID beginning on Day −2 and continuing through Day +7. The intraperitoneal AmB group received 1 mg/kg Amphotericin B deoxycholate (Apothecon, Princeton, N.J.) by intraperitoneal injection (IP) once daily (QD) on Day +1 and continuing through Day +7 (FIG. 2).
Statistical analyses were conducted as follows. Survival was plotted by Kaplan-Meier analysis, and differences in median survival and percent survival between prophylaxis groups were analyzed by the log-rank test and chi-square test, respectively, using Prism version 4 software (GraphPad, San Diego, Calif.). […] A p-value of ≦0.05 was considered statistically significant for all comparisons.

[2] = Aqueous and phase solubility of voriconazole with SAE-CD; assay type: physicochemical
[3] = Single-dose pharmacokinetics of inhaled voriconazole in mice; conditions: for AUC(0-t): AUC (0-6 hr) Plasma
Protocol: Initially, a single dose PK profile was performed on large mice with a 5 L/min flow rate through the dosing apparatus (see Table 2).
A subsequent PK study was then performed on smaller mice due to the mouse size constraints of the murine model of infection at a lower air flow rate of 1 L/min. Male ICR mice were exposed to a 20 minute nebulization period. […] Plasma was separated from whole blood collected to determine drug concentration (adapted from Pascual et al., Antimicrobial Agents and Chemotherapy, 2007, 51:1). Lungs were harvested and homogenized to determine drug concentration (adapted from Lutsar et al., Clinical Infectious Disease, 2003, 37:5).
Mice were dosed using a nose-only dosing apparatus as illustrated in FIGS. 1A-1B. VFEND® IV was reconstituted, diluted, and aerosolized as described previously. The airflow through the dosing apparatus was varied from 1-5 L/min (see Table 2). Sufficient solution was added to the medication reservoir to have residual volume remaining after 20 minutes. The nose-only dosing apparatus and nebulizer were disassembled between each dose, cleaned, dried, and reassembled.
Pharmacokinetic (PK) profiles were determined for high flow rate and low flow rate mice groups following a single 20 minute nebulization. Mice were ordered with masses of 32 g (high flow rate mice) and 20 g (low flow rate mice). Two or more mice were sacrificed by carbon dioxide narcosis at each time point (high flow rate mice—5, 10, 20, 30, 60, 90, 150, 240, 360, 720, and 1440 minutes or low flow rate mice—10, 30, 60, 240, 360, and 480 minutes). Whole blood was collected by cardiac puncture, stored in heparinized vials, and centrifuged to obtain plasma. Surgery was also performed on each mouse to extract the whole lungs which were then homogenized in 1 mL of normal saline. […] The trapezoidal rule was used to estimate the area under the curve (AUC) for each concentration versus time profile.
Briefly, sterile water for injection (SWFI) was added to lung tissue and homogenized using a rotor and stator high shear homogenizer. Proteins and other cellular components were precipitated following addition of 0.2M borate buffer (pH 9.0), ethyl acetate, and centrifugation. Supernatant was then extracted three times and liquid was evaporated under a gentle stream of nitrogen.
For lung tissue, SWFI was added to lung tissue and homogenized using a rotor and stator high shear homogenizer. […] Supernatant was then extracted three times and liquid was evaporated under a gentle stream of nitrogen.
Each sample was analyzed using a Waters Breeze liquid chromatograph (Waters Corporation, Milford Mass.) equipped with a heated (35° C.) JUPITER® C18 (150 mm×4.6 mm, 5 micrometer) with a Universal security guard (Widepore C18) guard column (Phenomenex, Torrance, Calif.). The sample volume was 50 microliter with a UV detection wavelength of 254 nm. The mobile phase consisted of a 50:50 mixture of 0.01 M sodium acetate buffer and methanol at 1 mL/min.
Male ICR mice were dosed using a nose-only dosing apparatus as illustrated in FIGS. 1A and 1B. The airflow through the dosing apparatus was varied from 1-5 L/min. VFEND® IV was reconstituted, diluted, and sufficient solution was added to the medication reservoir to have residual volume remaining after 20 minutes. The nose-only dosing apparatus and nebulizer were disassembled between each dose, cleaned, dried, and reassembled.
Single-dose pharmacokinetic profiles were determined in two groups of mice: a high flow-rate group (5 L/min air flow, 32 g average mass) and low flow-rate group (1 L/min, 20 g average mass). Two or more mice were sacrificed by carbon dioxide narcosis at each time point (high flow-rate: 5, 10, 20, 30, 60, 90, 150, 240, 360, 720, and 1440 minutes or low flow-rate mice: 10, 30, 60, 240, 360, and 480 minutes). Whole blood was collected by cardiac puncture into heparinized vials and centrifuged to obtain plasma.

Aspergillus fumigatus [4] = test: Pulmonary fungal burden by colony forming units in infected mice; assay type: in vivo
Protocol: (§1) Mice were monitored for an additional 5 days following discontinuation of treatment. Animals that appeared moribund prior to the end of the study were euthanized by halothane and death was recorded as occurring the next day. 12 mice were randomly selected from each group and euthanized on Day +8 for fungal burden analysis while any remaining mice were euthanized on Day +12. 2 additional mice were randomly selected from each group and euthanized on Day +8 and Day +12 for histological analysis
Lungs were homogenized in sterile saline (total volume 2 mL) supplemented with gentamicin and chloramphenicol using a tissue homogenizer (Polytron Dispensing and Mixing Technology PT 2100, Kinematica, Cincinnati, Ohio). Serial dilutions were prepared in sterile saline and plated in duplicate onto potato dextrose agar. Following 24 hours of incubation at 37° C., colonies were enumerated and colony forming units (CFU) per gram of lung tissue for each animal were calculated.
(§2) Statistical analyses were conducted as follows. Survival was plotted by Kaplan-Meier analysis, and differences in median survival and percent survival between prophylaxis groups were analyzed by the log-rank test and chi-square test, respectively, using Prism version 4 software (GraphPad, San Diego, Calif.). Differences in fungal burden endpoints (CFU/g and CE) were assessed for significance by analysis of variance with Tukey's post-test for multiple comparisons. A p-value of ≦0.05 was considered statistically significant for all comparisons.

Aspergillus fumigatus [5] = test: Pulmonary fungal burden by real-time quantitative PCR (conidial equivalents) in infected mice; assay type: in vivo; conditions: Day + 8 per table footnote
Protocol: as §1
Pulmonary fungal burden was also quantified by real-time quantitative polymerase chain reaction (qPCR) using previously described methods. Briefly, DNA was extracted from […] of lung homogenate with the use of a commercially available kit (DNeasy Tissue Kit, Qiagen, Valencia, Calif.) according to the manufacturer's instructions. DNA samples were analyzed in duplicate with the use of the ABI PRISM 7300 sequence-detection system (Applied Biosystems, Foster City, Calif.) with primers and dual-labeled fluorescent hybridization probes specific for the A. fumigatus 1,3-β-glucan synthase (FKS) gene (GenBank accession number U79728). The threshold cycle (Ct) of each sample was interpolated from a six-point standard curve generated by spiking naive mouse lungs with known amounts of conidia (102 to 107). An internal standard was amplified in separate reactions to correct for differences in DNA recovery. The resulting data was expressed as conidial equivalents (CE).
as §2

[6] = single dose of IV or oral voriconazole; cited from earlier work
[7] = Aerodynamic droplet size characterization, AERONEB Pro nebulizer and eight-stage cascade impactor; assay type: physicochemical
Protocol: The performance of an inhalable formulation of the invention was evaluated using an AERONEB® Pro nebulizer and a cascade impactor. Aerodynamic droplet size distributions were determined using an adapted USP Apparatus 1 nonviable eight-stage cascade impactor (Thermo-Anderson, Smyrna, Ga.) with a spacer.
Aerodynamic droplet size distributions were determined using a USP Apparatus 1 nonviable eight-stage cascade impactor (Thermo-Anderson, Symrna, Ga.) to quantify total emitted dose (TED) from the nebulizer output, mass median aerodynamic diameter (MMAD), geometric standard deviation (GSD), and percentage droplets with an aerodynamic diameter less than 4.7 micrometer (defined as the percentage fine particle fraction or FPF). The aerodynamic droplet size distribution was conducted as adapted from the guidelines described in USP 30 Section 601: Aerosols, Nasal Sprays, Metered-dose Inhalers, and Dry Powder Inhalers.

[8] = Small Mice (low flow rate, 1 L/min), single dose

## CC(c1ncncc1F)C(O)(Cn1cncn1)c1ccc(F)cc1F (stereo not shown) [Voriconazole, 2-(2,4-difluorophenyl)-3-(5-fluoropyrimidin-4-yl)-1-(1H-1,2,4-triazol-1-yl)butan-2-ol]
[1]
  Percent Survival: 66.7%
  Median Survival: >12 days
[1]; listed as voriconazole
  Percent Survival: Approximately 67%
  Median Survival: over 12 days
[1]; Kaplan-Meier survival curves
  difference in survival versus negative control (inhaled Captisol) and positive control (intraperitoneal Amphotericin B): statistically significant (p<0.05) difference in survival
[2]; water with SAE-CD, aqueous with cosolvent or surfactant or cyclodextrin, thermodynamic from solid, Voriconazole (mg/ml) at saturated solubility, SAE-CD 43.26 mg/ml (r4)
  solubility: 3.34 mg/mL (≈ 9.56 mM)
[2]; water with SAE-CD, aqueous with cosolvent or surfactant or cyclodextrin, thermodynamic from solid, Voriconazole (mg/ml) at saturated solubility, SAE-CD 43.26 mg/ml as printed (r8)
  solubility: 35.1 mg/mL (≈ 101 mM)
[2]; water with SAE-CD, aqueous with cosolvent or surfactant or cyclodextrin, thermodynamic from solid, Voriconazole (mg/ml) at saturated solubility, SAE-CD 108.15 mg/ml
  solubility: 8.39 mg/mL (≈ 24 mM)
[2]; water with SAE-CD, aqueous with cosolvent or surfactant or cyclodextrin, thermodynamic from solid, Voriconazole (mg/ml) at saturated solubility, SAE-CD 216.3 mg/ml
  solubility: 17.3 mg/mL (≈ 49.6 mM)
[2]; water with SAE-CD, aqueous with cosolvent or surfactant or cyclodextrin, thermodynamic from solid, Voriconazole (mg/ml) at saturated solubility, SAE-CD 324.45 mg/ml
  solubility: 26.5 mg/mL (≈ 75.8 mM)
[2]; water, room temperature, absence of water soluble cyclodextrin derivative, read-out: aqueous solubility
  solubility: 0.68 to 0.69 mg/mL (≈ 1.95 to 1.98 mM)
[3]; Large Mice (high flow rate, 5 L/min), single dose
  Cmax Lung: 1.62 microgram/g
[3]; [8]
  AUC (0-6 hr) Lung: 2408.0 microgram × min/g
  Cmax Lung: 11.02 microgram/g
[3]; male, ICR, mouse, in vivo, inhaled or intranasal
  Kp: 1.4 to 1.6
[3]; male, ICR, mouse, lung, inhaled or intranasal, 6.09 microgram/mL, Tmax Lung, Small Mice (low flow rate, 1 L/min), single dose, 20 minute nebulization
  Tmax: ≤ 30 min
[3]; male, ICR, mouse, lung, inhaled or intranasal, Lung Tmax, summary table
  Tmax: 10 to 30 min
[3]; male, ICR, mouse, lung, inhaled or intranasal, Tmax Lung, Large Mice (high flow rate, 5 L/min), single dose, 20 minute nebulization
  Tmax: 10 min
[3]; male, ICR, mouse, lung, inhaled or intranasal, Tmax Lung, Small Mice (low flow rate, 1 L/min), single dose, 20 minute nebulization
  Tmax: 30 min
[3]; male, ICR, mouse, plasma (heading says blood), inhaled or intranasal, Blood Tmax, summary table
  Tmax: 20 to 30 min
[3]; male, ICR, mouse, plasma, inhaled or intranasal, 6.09 microgram/mL, Cmax Plasma, Small Mice (low flow rate, 1 L/min), single dose
  Cmax: 7090 ng/mL
[3]; male, ICR, mouse, plasma, inhaled or intranasal, 6.09 microgram/mL, Tmax Plasma, Small Mice (low flow rate, 1 L/min), single dose, 20 minute nebulization
  Tmax: ≤ 30 min
[3]; male, ICR, mouse, plasma, inhaled or intranasal, Large Mice (high flow rate, 5 L/min), single dose
  AUC(0-t): 2270 ng·h/mL
[3]; male, ICR, mouse, plasma, inhaled or intranasal, Small Mice (low flow rate, 1 L/min), single dose
  AUC(0-t): 25800 ng·h/mL
[3]; male, ICR, mouse, plasma, inhaled or intranasal, Blood Cmax, single-dose
  Cmax: 7090 ng/mL
[3]; male, ICR, mouse, plasma, inhaled or intranasal, Cmax Plasma, Large Mice (high flow rate, 5 L/min), single dose
  Cmax: 1180 ng/mL
[3]; male, ICR, mouse, plasma, inhaled or intranasal, Tmax Plasma, Large Mice (high flow rate, 5 L/min), single dose, 20 minute nebulization
  Tmax: 20 min
[3]; male, ICR, mouse, plasma, inhaled or intranasal, Tmax Plasma, Small Mice (low flow rate, 1 L/min), single dose, 20 minute nebulization
  Tmax: 30 min
[3]; single-dose, mouse
  Lung Cmax: 11020 ng/mL
[3]; slower flow rate (small mice) versus high flow rate (large mice)
  increase in total drug exposure as measured by AUC0-6 for lung tissue and plasma: > 10 fold
Aspergillus fumigatus [4]; Day +8
  A - Day 8 Fungal Burden Determined by CFU, Mean: 4.26 log10 CFU
  A - Day 8 Fungal Burden Determined by CFU, Median: 4.21 log10 CFU
  A - Day 8 Fungal Burden Determined by CFU, Range: (3.62-4.68) log10 CFU
Aspergillus fumigatus [4]; all samples, day 8 and day 12
  B - Fungal Burden Determined by CFU for All Mice, Mean: 3.88 log10 CFU
  B - Fungal Burden Determined by CFU for All Mice, Median: 4.14 log10 CFU
  B - Fungal Burden Determined by CFU for All Mice, Range: (2.60-4.68) log10 CFU
Aspergillus fumigatus [4]; in vivo
  reduction in fungal burden between the groups (CFUs per gram of lung mass and CEs by qPCR): no significant reduction in fungal burden
Aspergillus fumigatus [5]
  C - Conidial Equivalents Determined by qPCR, Mean: 4.56 log10 conidial equivalents
  C - Conidial Equivalents Determined by qPCR, Median: 4.59 log10 conidial equivalents
  C - Conidial Equivalents Determined by qPCR, Range: (3.77-5.32) log10 conidial equivalents
Aspergillus fumigatus [5]; normalized for wet lung weight
  D - Conidial Equivalents per Gram of Lung Tissue Determined by Qpcr, Mean: 5.19 log10 conidial equivalents per
  D - Conidial Equivalents per Gram of Lung Tissue Determined by Qpcr, Median: 5.24 log10 conidial equivalents per
  D - Conidial Equivalents per Gram of Lung Tissue Determined by Qpcr, Range: (4.45-5.98) log10 conidial equivalents per
[6]
  typical Tmax in human plasma: 50 to 66 min
[7]; Average Results of Test 1 and 2, 6.25 mg/mL
  FPF (fine particle fraction): > 70%
[7]; all dosing during the survival study
  estimated TED, based on measured residual volumes: 25.44 mg

From patent publication US20110224232A1 (Board of Regents, The University of Texas System, priority 2008, published 2011)
